Tests used:
GIST = test system: GIST; design: method as in PMID 32601076; details: fourth-line treatment; cited from earlier work
[1] = test system: phosphorylated c-KIT (Tyr703) and downstream signaling in GIST-T1 cells; test: Western blot of c-KIT signaling; assay type: cell-based, human
Experimental: (§1) Cells were harvested and lysed using RIPA buffer containing 50 mM HEPES (pH 7.4), 1% Triton X-100, 2 mM EDTA, 150 mM NaCl, 2.5 mM NaF, 5 mM Na3VO4, and protease inhibitor cocktail tablet (Roche, # 11–878-580–001). Proteins were separated and transferred to an NC membrane. The membranes were blocked using 5% skim milk in TBS-T buffer. The p-c-KIT (Tyr703, # 3073), p-AKT (Ser473, # 9271), p-ERK (Thr202/Tyr204, # 8544), ERK (# 4695), p-PLCγ (Tyr783, # 14008), p-STAT3 (Tyr705, # 4074), and PARP (# 9542) antibodies were obtained from Cell Signaling Technologies. The β-actin (# sc-47778) and STAT3 (# sc-482) antibodies were obtained from Santa Cruz Biotechnology. AKT (A18120) antibody was purchased from ABclonal. Each primary antibody was incubated overnight at 4 °C. The secondary antibody (GenDEPOT) was incubated for 1 h at room temperature. Proteins were detected using ECL substrate.

HMC1.2 cells [2] = test: Apoptosis analysis (annexinV/PI flow cytometry); assay type: cell-based, human; details: HMC1.2, 1 μM, 48 h
Experimental: (§2) After compound treatment in GIST-T1 and HMC1.2 cells for 24 h, cells were fixed with 70% cold ethanol. Then, cells were incubated with 50 μg propidium iodide/mL solution (PI, Sigma) containing 1 mg RNase A/mL for 30 min in the dark. Cell cycle arrest was analyzed (BD Accuri), and data were processed using BD Accuri^TM C6 software. For apoptosis analysis, compound treatment for 24–48 h, cells were harvested and stained with annexinV and PI solution. 1 × 10^5 cells were analyzed using flow cytometric analysis.

c-KIT D816V Ba/F3 cells [3] = test: Anti-proliferative activity on Ba/F3 cells; assay type: cell-based; details: Mus musculus, BaF3
GIST-T1 cells [4] = test: Cell cycle arrest analysis (PI flow cytometry); assay type: cell-based, human; details: GIST-T1, 0.01 μM
Experimental: as §2

parental Ba/F3 cells = test: Anti-proliferative activity on Ba/F3 cells; assay type: cell-based; details: Mus musculus, BaF3
Experimental: (§3) GIST-T1 (Cosmobio, Tokyo, Japan, # PMC-GIST01C-COS) cells were cultured in DMEM (Welgene, # LM001-05) and HMC1.2 (Merck, Darmstadt, Germany, # SCC062) cells were cultured in IMDM (Welgene, # LM004-01). Parental Ba/F3 (DSMZ, Braunschweig, Germany, # ACC300) cells were cultured in RPMI (Welgene, # LM011-51) with 10 ng IL-3/mL (Enzo, # ALX-201-821). The culture media was supplemented with 10% fetal bovine serum and 1% penicillin/streptomycin solution. The cells were maintained in a humidified atmosphere containing 5% CO2 at 37 °C.
(§4) Cells (GIST-T1: 5.0 × 10^3; HMC1.2: 1 × 10^4) were seeded in 96-well plates. Each compound was treated in each well at 10 dose points of 3-fold serial dilution. After treatment with each compound for 72 h, CellTiter-Glo solution (Promega, # G7572) was added to each well. Anti-proliferation activity was measured the luminescence using a 96-well plate reader (EnVision 2013).

GIST-T1 cells [5] = test: Soft agar assay (anchorage-independent growth); assay type: cell-based, human; details: GIST-T1, two different concentrations, 3 weeks
Experimental: Anchorage-independent growth was assessed by determining colony formation on soft agar. GIST-T1 cells in DMEM media containing 0.7% agar were plated at 5,000 cells per well. Cells were treated with each compound for 3 weeks, and the media were changed every 3 days. Colonies were stained using iodonitrotetrazolium chloride (Sigma Aldrich). The average number colonies were counted using ImageJ software (version 1.53e, National Institutes of Health, Bethesda, MD, USA)

HMC1.2 cells [6] = test: Cell viability assay (CellTiter-Glo); assay type: cell-based, human; details: Homo sapiens, 72 h
Experimental: as §3, §4

c-KIT = c-KIT (Homo sapiens, UniProt P10721); test: Radiometric biochemical kinase assay on c-KIT; design: purchased Reaction Biology Corp. (contract assay service); details: read-out: IC50 against c-KIT
Experimental: (§5) Biochemical kinase assays on c-KIT protein kinase were performed at Reaction Biology Corp. (San Diego, CA, USA). […] The kinase assay followed the manufacturer’s instruction. IC50 values were calculated by GraphPad prism 8.0 software (GraphPad Software, San Diego, CA, USA).
Enzymatic inhibitory activities of all synthesized thiazolo[5,4-b]pyridine derivatives against c-KIT were measured using radiometric biochemical kinase assays (Table 1). We first explored the R1 group of the thiazolo[5,4-b]pyridine scaffold.

[7] = test system: c-KIT auto-phosphorylation in HMC1.2 cells; test: Western blot of c-KIT signaling; assay type: cell-based, human; details: 10 μM
Experimental: as §1

GIST-T1 cells [8] = test: Apoptosis analysis (annexinV/PI flow cytometry); assay type: cell-based, human; details: GIST-T1, 0.05 μM
Experimental: as §2

[9] = test system: c-KIT auto-phosphorylation in c-KIT D816V Ba/F3 cells; test: Western blot of c-KIT signaling; assay type: cell-based; details: 10 μM
Experimental: as §1

HMC1.2 cells [10] = test: Cell cycle arrest analysis (PI flow cytometry); assay type: cell-based, human; details: HMC1.2, 0.5 μM, 24 h
Experimental: as §2

GIST-T1 cells [11] = test: Migration (wound healing) assay; assay type: cell-based, human; details: GIST-T1, 0.005 μM and 0.05 μM, 36 h
Experimental: GIST-T1 cells were seeded in 6-well plates at 2 × 10^6 cells. Next day, cells were washed with PBS and wounded in the center of each well. Then, GIST-T1 cells were washed with PBS and added to fresh DMEM.

GIST-T1 cells [12] = test: Invasion assay (Transwell); assay type: cell-based, human; details: GIST-T1, 0.05 μM, 48 h
Experimental: The cell invasion assay was performed using Transwell membrane filter inserts (Corning Costar Corp., Corning, NY, USA). GIST-T1 cells were then suspended in serum-free DMEM at 2 × 10^6 cells and seeded in the upper chambers. In the lower chambers, the DMEM medium containing 10% FBS was added. After 48 h, the cells migrating down the membrane were stained with crystal violet.

c-KIT D816V Ba/F3 cells [13] = test: Cell cycle arrest analysis (PI flow cytometry); assay type: cell-based; details: c-KIT D816V Ba/F3, 0.5 μM, 24 h
c-KIT V560G/D816V = molecular target: T1, c-KIT V560G/D816V (Homo sapiens, UniProt P10721, D816V/V560G); test: ADP-Glo kinase assay on c-KIT V560G/D816V; assay type: biochemical; details: for IC50: ADP-Glo kinase assay, 10 μM ATP; for fold higher enzymatic inhibitory activity against c-KIT V560G/D816V compared with imatinib: versus imatinib
T1 construct: purchased Promega VA7063
Experimental: as §5

c-KIT D816V Ba/F3 cells [14] = test: Apoptosis analysis (annexinV/PI flow cytometry); assay type: cell-based; details: c-KIT D816V Ba/F3, 1 μM
Experimental: as §2

GIST-T1 cells [15] = test: Cell viability assay (CellTiter-Glo); assay type: cell-based; details: Homo sapiens, GISTT1; 72 h; concentration causing half-maximal growth inhibition
Experimental: as §3, §4

| Compound | overall response rate (GIST) | levels of phosphorylated c-KIT (Tyr703) and downstream mediators p-AKT, p-ERK, p-PLCγ, p-STAT3 [1] | production of apoptotic cells (HMC1.2 cells [2]) | GI50 (c-KIT D816V Ba/F3 cells [3]) | G0/G1 arrest induced compared to control (GIST-T1 cells [4]) | GI50 (parental Ba/F3 cells) | anchorage-independent growth (GIST-T1 cells [5]) | GI50 (HMC1.2 cells [6]) | IC50 (c-KIT) | c-KIT auto-phosphorylation [7] | production of apoptotic cells (GIST-T1 cells [8]) | c-KIT auto-phosphorylation [9] | G0/G1 arrest compared with imatinib (HMC1.2 cells [10]) | cell migration decreased compared to control (GIST-T1 cells [11]) | invasion capability (GIST-T1 cells [12]) | G0/G1 arrest compared with imatinib (c-KIT D816V Ba/F3 cells [13]) | IC50 (c-KIT V560G/D816V) | fold higher enzymatic inhibitory activity against c-KIT V560G/D816V compared with imatinib (c-KIT V560G/D816V) | production of apoptotic cells (c-KIT D816V Ba/F3 cells [14]) | GI50 (GIST-T1 cells [15]) |
| --- | --- | --- | --- | --- | --- | --- | --- | --- | --- | --- | --- | --- | --- | --- | --- | --- | --- | --- | --- | --- |
| CCn1c(=O)c(-c2cc(NC(=O)Nc3ccccc3)c(F)cc2Br)cc2cnc(NC)cc21 [Ripretinib] | 9.4% |  |  |  |  |  |  |  |  |  |  |  |  |  |  |  |  |  |  |  |
| Cc1ccc(NC(=O)c2ccc(CN3CCN(C)CC3)cc2)cc1Nc1nccc(-c2cccnc2)n1 [imatinib, reference compound] |  | remarkably inhibited | did not induce apoptosis | 12200 ± 2060 nM | 25–35% | 17000 ± 200 nM | dramatic inhibition | 27100 ± 3360 nM |  |  |  |  |  |  |  |  |  |  |  |  |
| CC(=O)Nc1nc2cc(-c3cc(NC(=O)c4ccc(CN5CCN(C)CC5)c(C(F)(F)F)c4)ccc3C)cnc2s1 [7c] |  | remarkably inhibited | remarkably induced | 530 ± 60 nM | 25–35% | 10500 ± 3440 nM |  | 1520 ± 430 nM | 100 nM | completely inhibited | remarkably induced | completely inhibited | more strongly | 50–70% | significantly suppressing | more strongly | 5070 ± 710 nM | 4.9- to 8.0 fold | remarkably induced | 10 nM |
| Cc1ccc(NC(=O)c2ccc(CN3CCNCC3)c(C(F)(F)F)c2)cc1-c1cnc2sc(N)nc2c1 [6s] |  | remarkably inhibited | remarkably induced | 1060 ± 150 nM | 25–35% | 10500 ± 3590 nM |  | 1330 ± 430 nM | 370 nM | completely inhibited | remarkably induced | completely inhibited | more strongly | 50–70% | significantly suppressing | more strongly | 7670 ± 2640 nM | 4.9- to 8.0 fold | remarkably induced | 20 nM |

— paper PMC9817970 (Cancers, 2022)
